Values of other authors as cited in paper PMC10930872, “Preparation, Structural Identification, and Screening of Egg-Derived Peptides with Facilitating Alcohol Metabolism Activity” (Foods, 2024).
One block for each compound: values may come before it.

Experiments:
hepatic ADH = conditions: ref [42],[43]
Text: This has to do with the fact that eggs contain all EAAs. […] Ala is involved in hepatic gluconeogenesis, which oxidizes NADH + H^+ to NAD^+, thereby maintaining cytoplasmic NAD^+ concentrations and promoting alcohol metabolism. […] It is reported that HAA (Tyr, Trp, Gl ...

[1] = target: T1, alcohol dehydrogenase (ADH) (Saccharomyces cerevisiae, UniProt P00330); conditions: pentapeptide screened by Zan et al., 2023; ref [59]; read-out: EC50 of ADH activation
T1 sequence (P00330 1-348): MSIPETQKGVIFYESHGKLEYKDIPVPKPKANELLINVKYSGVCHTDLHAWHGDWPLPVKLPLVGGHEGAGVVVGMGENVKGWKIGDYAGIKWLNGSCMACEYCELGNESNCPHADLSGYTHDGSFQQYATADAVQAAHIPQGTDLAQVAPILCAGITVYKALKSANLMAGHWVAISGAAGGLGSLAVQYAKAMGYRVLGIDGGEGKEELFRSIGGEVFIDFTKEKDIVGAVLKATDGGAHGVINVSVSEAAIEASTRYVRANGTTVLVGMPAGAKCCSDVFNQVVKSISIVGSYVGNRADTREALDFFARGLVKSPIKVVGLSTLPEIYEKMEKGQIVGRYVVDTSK
Text: GSH, a tripeptide composed of Glu, Cys, and Gly, is widely found in normal human cells, with the highest concentration in the liver. It plays an important role in scavenging free radicals, inhibiting inflammatory factors, relieving hangovers, and protecting the liver.

ethanol dehydrogenase = tested on: ethanol dehydrogenase; set-up: method as in doi:10.1016/j.lwt.2022.113376; conditions: ref [36]

Compound: CC(C)C[C@H](N)C(=O)O [Leu, L-leucine]
Hepatic ADH activity (hepatic ADH): significantly increase hepatic ADH activity

EC50 [1]: 1.6 µM
Compound: ILPHF [pentapeptide screened by Zan et al., 2023]

Compound: Lys-Pro-Cys [KPC, chicken-derived tripeptide]
Stability of ethanol dehydrogenase (ethanol dehydrogenase): enhanced the stability of ethanol dehydrogenase
